The results in this text go back to patent US20250236840A1, “SELECTIVE EXPANSION OF DIFFERENT SUBPOPULATIONS OF T CELLS BY THE ALTERATION OF CELL SURFACING SIGNALS AND SIGNAL RATIO” (LIFE TECHNOLOGIES AS, priority 2015, published 2025).

This assay has as its system T cells. The assay can be described thus: Effect of AHR agonist on Th17 polarization (intracellular IL-17 after PMA/Ionomycin). It counts as cell-based, human. The method, then: FIG. 8. T cells were activated with CD3/CD5 (upper) or CD3/ICOS (lower) figure and expanded in presence of standard Th17-polarizing cytokines/antibodies (cytokines package), or with 100 nM FICZ and IL-1B and IL-6. At day 13 cultures were stimulated with PMA/Ionomycin for 4-5 hours before assessment of IL-17A and IL-17F expression. Cytograms show intracellular expression of the cytokines.
Protocol permutation: T cells were activated with DYNABEADS® CD3/CD5, DYNABEADS® CD3/ICOS, or DYNABEADS® CD3/CD28 with equal signal strength and stoichiometry. Th17 polarization was facilitated by addition of i) cytokines (TGF-β, IL-23, IL-6, IL-1B) and αIL-4/α-IFN-γ neutralizing antibodies or ii) the AHR agonist FICZ plus IL-6, IL-1βa. Th17 polarization was assessed by intracellular staining of IL-17 and IFN-γ following PMA/Ionomycin activation of polarized T cells (FIG. 8).

Take `O=Cc1c2c(cc3c1=Nc1ccccc1-3)=Nc1ccccc1-2` [FICZ, 6-formylindolo [3,2-b]carbazole]: the “Activity on T cells costimulated through CD5” value (100 nM FICZ plus IL-1β and IL-6, CD3/CD5 beads, day 13) is “promising activity”. In addition, the “Activity on T cells costimulated through ICOS” value (100 nM FICZ plus IL-1β and IL-6, CD3/ICOS beads, day 13) is on record as “not”. Besides, the “IL-17 producing cells compared to standard polarizing conditions” value (FICZ, IL-1β and IL-6 protocol) is “fewer”.
